In the CheMixHub viscosity set:

Experiment: xn = mol fraction of the nth substance listed

Cc1ccc(O)cc1 + Cc1ccccc1
308.15 K, 101 kPa
Settings | viscosity [mPa·s]
x1 = 0.0324 | 0.5202
x1 = 0.0983 | 0.5823
x1 = 0.2079 | 0.7295
x1 = 0.305 | 0.9088
x1 = 0.417 | 1.201
x1 = 0.58 | 1.867
x1 = 0.6813 | 2.636
x1 = 0.7299 | 3.2
x1 = 0.8385 | 4.646
x1 = 0.8532 | 5.08
x1 = 0.9349 | 6.873

O=S(=O)(Cl)Cl + Cc1ccccc1
298.15 K, 101 kPa
Settings | viscosity [mPa·s]
x1 = 0.207 | 0.5841
x1 = 0.373 | 0.6144
x1 = 0.572 | 0.6457
x1 = 0.713 | 0.6642
x1 = 0.826 | 0.6759

O=S1(=O)CCCC1 + Cc1ccccc1
viscosity [mPa·s], 101.3 kPa
Settings | x2 = 0.1267 | x2 = 0.2458 | x2 = 0.3587 | x2 = 0.4651 | x2 = 0.5662 | x2 = 0.6617 | x2 = 0.7527 | x2 = 0.8392 | x2 = 0.9206
303.15 K | 6.052 | 3.95 | 2.732 | 2.029 | 1.557 | 1.173 | 0.9289 | 0.7548 | 0.6265
323.15 K | 3.906 | 2.662 | 1.919 | 1.458 | 1.151 | 0.8828 | 0.7151 | 0.5893 | 0.4967

O=S1(=O)CCCC1 + Cc1ccccc1C
viscosity [mPa·s], 101.3 kPa
Settings | x2 = 0.1118 | x2 = 0.2206 | x2 = 0.3267 | x2 = 0.4301 | x2 = 0.5311 | x2 = 0.6293 | x2 = 0.7254 | x2 = 0.8191 | x2 = 0.9105
303.15 K | 6.89 | 4.875 | 3.582 | 2.692 | 2.066 | 1.618 | 1.243 | 1.04 | 0.8453
323.15 K | 4.358 | 3.169 | 2.397 | 1.854 | 1.456 | 1.173 | 0.9211 | 0.8044 | 0.6503

Nc1ccccc1Cl + Cc1ccccc1Cl
viscosity [mPa·s], 101 kPa
Settings | x1 = 0.11 | x1 = 0.2176 | x1 = 0.3228 | x1 = 0.4258 | x1 = 0.5266 | x1 = 0.6253 | x1 = 0.7219 | x1 = 0.8165 | x1 = 0.9092
303.15 K | 1.073 | 1.284 | 1.521 | 1.782 | 2.069 | 2.379 | 2.711 | 3.065 | 3.437
308.15 K | 0.9808 | 1.175 | 1.392 | 1.63 | 1.888 | 2.164 | 2.458 | 2.765 | 3.084
313.15 K | 0.8896 | 1.07 | 1.271 | 1.49 | 1.726 | 1.976 | 2.238 | 2.507 | 2.783
318.15 K | 0.7935 | 0.9642 | 1.153 | 1.358 | 1.578 | 1.808 | 2.045 | 2.286 | 2.526
